pEC50: −log10 of the molar value.
Target: human activated kallikrein enzyme (Homo sapiens, UniProt P03952)
Experiment: Inhibition of human activated plasma kallikrein, fluorogenic peptide substrate (PFR-AMC), 500 pM enzyme format
Assay type: biochemical
Conditions: 500 pM activated kallikrein, 30 min preincubation, 10 min reaction, room temperature, read-out: Primary Dose Response Assay: Average EC50
Method: Compounds were evaluated for inhibition of the human activated kallikrein enzyme in two formats of an assay employing a fluorogenic peptide substrate. In one assay format, the concentrations of reagents were as follows: 20 mM Tris pH 7.5, 1 mM EDTA, 150 mM sodium chloride, 0.1% PEG-400, 0.1% Triton X-100, 500 pM activated kallikrein enzyme, […] Pro-Phe-Arg-7-amido-4-methylcoumarin (PFR-AMC) substrate. Prior to reaction initiation with substrate, enzyme and inhibitors were preincubated for 30 min at room temperature. After initiation with substrate, reactions were incubated for 10 min at room temperature and fluorescence emission at 460 nm from 380 nm excitation measured with a microplate reader. In another assay format, the concentrations of reagents were as follows: 20 mM Tris pH 7.5, 1 mM EDTA, 150 mM sodium chloride, 0.1% PEG-400, 0.1% Triton X-100, 5 pM activated kallikrein enzyme, 300 uM PFR-AMC substrate. Prior to reaction initiation with substrate, enzyme and inhibitors were preincubated for 30 min at room temperature. After initiation with substrate, reactions were incubated for 18 hr at room temperature and fluorescence emission at 460 nm from 380 nm excitation measured with a microplate reader.

Sequence of human activated kallikrein enzyme (P03952 391-638 limits assumed): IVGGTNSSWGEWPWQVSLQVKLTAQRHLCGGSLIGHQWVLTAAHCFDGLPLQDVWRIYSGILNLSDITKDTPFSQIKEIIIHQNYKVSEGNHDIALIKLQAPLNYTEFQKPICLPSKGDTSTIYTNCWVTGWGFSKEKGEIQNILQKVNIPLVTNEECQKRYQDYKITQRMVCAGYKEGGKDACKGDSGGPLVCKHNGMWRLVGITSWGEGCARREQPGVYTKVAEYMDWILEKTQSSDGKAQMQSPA
Sequence of human activated kallikrein enzyme (P03952 20-390 partner limits assumed): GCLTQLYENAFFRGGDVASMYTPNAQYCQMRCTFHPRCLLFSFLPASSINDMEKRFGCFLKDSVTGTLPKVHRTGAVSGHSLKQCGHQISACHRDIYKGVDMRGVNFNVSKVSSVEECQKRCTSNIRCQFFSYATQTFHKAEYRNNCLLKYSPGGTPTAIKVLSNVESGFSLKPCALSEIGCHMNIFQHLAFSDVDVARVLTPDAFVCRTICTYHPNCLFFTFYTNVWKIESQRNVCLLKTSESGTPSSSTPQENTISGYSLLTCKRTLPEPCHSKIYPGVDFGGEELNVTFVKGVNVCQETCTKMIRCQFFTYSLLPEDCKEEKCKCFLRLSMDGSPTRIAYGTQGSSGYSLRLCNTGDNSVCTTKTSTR

Compared with O=C(Nc1cc(OCc2ccc(Cn3cccn3)cc2)cnn1)[C@H]1C[C@@H]1c1cncc(Cl)c1 (racemic) [Example 1, rac-(1S*,2S*)—N-(5-((4-((1H-pyrazol-1-yl)methyl)benzyl)oxy)pyridazin-3-yl)-2-(5-chloropyridin-3-yl)cyclopropane-1-carboxamide], O=C(Nc1cc(OCc2ccc(Cn3cccn3)cc2)cnn1)[C@H]1C[C@@H]1c1cccc(Cl)c1 (racemic) [Example 18, rac-(1S*,2S*)—N-(5-((4-((1H-pyrazol-1-yl)methyl)benzyl)oxy)pyridazin-3-yl)-2-(3-chlorophenyl)cyclopropane-1-carboxamide] is higher in pEC50: < 6.30 for the first, 7.60 to 8.60 for the second. The second is the more potent here.

O=C(Nc1cc(OCc2csc(-c3ccccc3)n2)cnn1)[C@H]1C[C@@H]1c1cccc(Cl)c1 (racemic) [Example 2, rac-(1S*,2S*)-2-(3-chlorophenyl)-N-(5-((2-phenylthiazol-4-yl)methoxy)pyridazin-3-yl)cyclopropane-1-carboxamide] and O=C(Nc1cc(OCc2ccc(-c3ncc[nH]3)cc2)cnn1)[C@H]1C[C@@H]1c1cccc(Cl)c1 (racemic) [Example 13, rac-(1S*,2S*)—N-(5-((4-(1H-imidazol-2-yl)benzyl)oxy)pyridazin-3-yl)-2-(3-chlorophenyl)cyclopropane-1-carboxamide] cannot be ordered by pEC50: < 6.30 for the first, < 6.30 for the second.

O=C(Nc1cc(OCc2ccc(Cn3ccc(C4CC4)n3)cc2)cnn1)[C@H]1C[C@@H]1c1cccc(Cl)c1 (racemic) [Example 4, rac-(1S*,2S*)-2-(3-chlorophenyl)-N-(5-((4-((3-cyclopropyl-1H-pyrazol-1-yl)methyl)benzyl)oxy)pyridazin-3-yl)cyclopropane-1-carboxamide] and O=C(Nc1cc(OCc2ccc(-n3ccnc3)cc2)cnn1)[C@H]1C[C@@H]1c1cccc(Cl)c1 (racemic) [Example 12, rac-(1S*,2S*)—N-(5-((4-(1H-imidazol-1-yl)benzyl)oxy)pyridazin-3-yl)-2-(3-chlorophenyl)cyclopropane-1-carboxamide] cannot be ordered by pEC50: < 6.30 for the first, < 6.30 for the second.

First: O=C(Nc1cc(OCc2ccc(Cn3cccn3)cc2)cnn1)[C@H]1C[C@@H]1c1cccnc1Cl (racemic) [Example 5, rac-(1S*,2S*)—N-(5-((4-((1H-pyrazol-1-yl)methyl)benzyl)oxy)pyridazin-3-yl)-2-(2-chloropyridin-3-yl)cyclopropane-1-carboxamide]
Second: Nc1ncccc1[C@H]1C[C@@H]1C(=O)Nc1cc(OCc2ccc(Cn3cccn3)cc2)cnn1 (racemic) [Example 8, rac-(1S*,2S*)—N-(5-((4-((1H-pyrazol-1-yl)methyl)benzyl)oxy)pyridazin-3-yl)-2-(2-aminopyridin-3-yl)cyclopropane-1-carboxamide]
The pEC50 of the first is lower: < 6.30 for the first, 6.30 to 7.60 for the second.

O=C(Nc1cc(OCc2ccc(Cn3cccn3)cc2)cnn1)[C@H]1C[C@@H]1c1cn[nH]c1 (racemic) [Example 6, rac-(1S*,2S*)—N-(5-((4-((1H-pyrazol-1-yl)methyl)benzyl)oxy)pyridazin-3-yl)-2-(1H-pyrazol-4-yl)cyclopropane-1-carboxamide] and O=C(Nc1cn(Cc2ccc(Cn3cccn3)cc2)cn1)[C@H]1C[C@@H]1c1cccc(Cl)c1 (racemic) [Example 9, rac-(1S*,2S*)—N-(1-(4-((1H-pyrazol-1-yl)methyl)benzyl)-1H-imidazol-4-yl)-2-(3-chlorophenyl)cyclopropane-1-carboxamide] cannot be ordered by pEC50: < 6.30 for the first, < 6.30 for the second.

Going from O=C(Nc1cnn(Cc2ccc(Cn3cccn3)cc2)c1)[C@H]1C[C@@H]1c1cccc(Cl)c1 (racemic) [Example 10, rac-(1S*,2S*)—N-(1-(4-((1H-pyrazol-1-yl)methyl)benzyl)-1H-pyrazol-4-yl)-2-(3-chlorophenyl)cyclopropane-1-carboxamide] to O=C(Nc1cc(NCc2ccc(Cn3ccccc3=O)cc2)cnn1)[C@H]1C[C@@H]1c1cccc(Cl)c1 (racemic) [Example 14, rac-(1S*,2S*)-2-(3-chlorophenyl)-N-(5-((4-((2-oxopyridin-1 (2H)-yl)methyl)benzyl)amino)pyridazin-3-yl)cyclopropane-1-carboxamide], the pEC50 rises from < 6.30 to > 8.60.

First: Cc1cnn(-c2cc(COc3cnnc(NC(=O)[C@H]4C[C@@H]4c4cccc(Cl)c4)c3)ccn2)c1 (racemic) [Example 11, rac-(1S*,2S*)-2-(3-chlorophenyl)-N-(5-((2-(4-methyl-1H-pyrazol-1-yl)pyridin-4-yl)methoxy)pyridazin-3-yl)cyclopropanecarboxamide]
Second: O=C(Nc1cc(NCc2ccc(Cn3cc(Cl)ccc3=O)cc2)cnn1)[C@H]1C[C@@H]1c1cccc(Cl)c1 (racemic) [Example 17, rac-(1S*,2S*)—N-(5-((4-((5-chloro-2-oxopyridin-1 (2H)-yl)methyl)benzyl)amino)pyridazin-3-yl)-2-(3-chlorophenyl)cyclopropane-1-carboxamide]
The pEC50 of the first is lower: < 6.30 for the first, 7.60 to 8.60 for the second.

O=C(Nc1cc(NCc2ccc(Cn3ccccc3=O)cc2)cnn1)[C@H]1C[C@H]1c1cccc(Cl)c1 (racemic) [Example 19, rac-(1R*,2S*)-2-(3-chlorophenyl)-N-(5-((4-((2-oxopyridin-1 (2H)-yl)methyl)benzyl)amino)pyridazin-3-yl)cyclopropane-1-carboxamide] and O=C(Nc1cc(C2(c3ccc(Cn4cc(Cl)ccc4=O)cc3)CC2)cnn1)[C@H]1C[C@@H]1c1cccc(Cl)c1 (racemic) [Example 20, rac-(1S*,2S*)—N-(5-(1-(4-((5-chloro-2-oxopyridin-1 (2H)-yl)methyl)phenyl)cyclopropyl)pyridazin-3-yl)-2-(3-chlorophenyl)cyclopropane-1-carboxamide] cannot be ordered by pEC50: < 6.30 for the first, < 6.30 for the second.

First: O=C(Nc1cc(Cc2ccc3ncc(C4CC4)cc3c2)ncn1)[C@H]1C[C@@H]1c1cccc(Cl)c1 (racemic) [Example 21, rac-(1S*,2S*)-2-(3-chlorophenyl)-N-(6-((3-cyclopropylquinolin-6-yl)methyl)pyrimidin-4-yl)cyclopropane-1-carboxamide]
Second: N#Cc1ccc(Cl)cc1[C@H]1C[C@@H]1C(=O)Nc1cc(NCc2nc3ccc(C4CC4)cn3n2)ncn1 (racemic) [Example 24, rac-(1S*,2S*)-2-(5-chloro-2-cyanophenyl)-N-(6-(((6-cyclopropyl-[1,2,4]triazolo[1,5-a]pyridin-2-yl)methyl)amino)pyrimidin-4-yl)cyclopropane-1-carboxamide]
The pEC50 of the first is lower: < 6.30 for the first, 7.60 to 8.60 for the second. The second is the more potent here.

First: N#Cc1ccc(Cl)cc1[C@H]1C[C@@H]1C(=O)Nc1cc(NCc2nc3ccc(C4CC4)nn3n2)ncn1 (racemic) [Example 27, rac-(1S*,2S*)-2-(5-chloro-2-cyanophenyl)-N-(6-(((6-cyclopropyl-[1,2,4]triazolo[1,5-b]pyridazin-2-yl)methyl)amino)pyrimidin-4-yl)cyclopropane-1-carboxamide]
Second: N#Cc1ccc(Cl)cc1[C@H]1C[C@@H]1C(=O)Nc1cc(NCc2nc3ccc(C4CC4)cn3n2)ccn1 (racemic) [Example 30, rac-(1S*,2S*)-2-(5-chloro-2-cyanophenyl)-N-(4-(((6-cyclopropyl-[1,2,4]triazolo[1,5-a]pyridin-2-yl)methyl)amino)pyridin-2-yl)cyclopropane-1-carboxamide]
The pEC50 of the first is lower: 7.60 to 8.60 for the first, > 8.60 for the second.

With Cc1ccnc([C@H]2C[C@@H]2C(=O)Nc2cc(N3C[C@@H](O)C[C@H]3c3ccc(N4CC5CC5C4)nc3)ncn2)n1 (mixture of isomers) [Example 70, rac-(1S*,2S*)—N-(6-((2S*,4S)-2-(6-(3-azabicyclo[3.1.0]hexan-3-yl)pyridin-3yl)-4-hydroxypyrrolidin-1-yl)pyrimidin-4-yl)-2-(4-methylpyrimidin-2-yl)cyclopropane-1-carboxamide] the pEC50 was < 6.30.
